From a flash point compilation (Sun et al. 2020) come the findings set out here.

Test in series [1]: not given
The source holds these as a separate data set.

Test in series [2]: not given
This is another data set of the same source.

`C[Si](Cl)(Cl)CCCCl` [3-Chloropropylmethyldichlorosilane] showed a flash point of 86 °C.
On to `CN(C)[Si](C)(C)C` [(N,N-Dimethylamino)trimethylsilane], for which the flash point is -19 °C. This compound also returned a flash point in series [1] of -18.6 °C.
`c1cc[c]([GeH2][c]2ccccc2)cc1` [DIPHENYLGERMANE]: the flash point in series [2] was found to be 104.00 °C.
On the same count and under the same terms, for `C[CH2][Ge]([Cl])([Cl])[Cl]` [ETHYLTRICHLOROGERMANE] the value was 51.00 °C.
For `CC[Si](Cl)(Cl)Cl` [Ethyltrichlorosilane], the flash point was 22 °C. In addition, in series [1], the flash point is -10.00 °C.
`[CH3][Ge]([CH3])([CH3])[Ge]([CH3])([CH3])[CH3]` [HEXAMETHYLDIGERMANE]: the flash point in series [2] was 14.00 °C.
For `C=C(C)C(=O)O[CH2][Ge]([CH3])([CH3])[CH3]` [METHACRYLOXYMETHYLTRIMETHYLGERMANE], in series [2], the flash point worked out at 63.00 °C.
On the same count and under the same terms, for `[CH3][Ge]([Cl])([Cl])[Cl]` [METHYLTRICHLOROGERMANE] the value was 10.00 °C.
`C[SiH](Cl)Cl` [Methyldichlorosilane] gave a flash point of -32 °C.
Still for that read-out and setting: for `Cl[SiH](Cl)c1ccccc1` [Phenyldichlorosilane] the value was 60 °C; for `C[SiH](C)c1ccccc1` [Phenyldimethylsilane], 38 °C.
In series [2], `CCCC[O][Ge]([O]CCCC)([O]CCCC)[O]CCCC` [TETRA-n-BUTOXYGERMANE] registered a flash point of 112.00 °C.
The same measure, in the same setting: the value for `C[CH2][Ge]([CH2]C)([CH2]C)[CH2]C` [TETRAETHYLGERMANE] was 42.00 °C; that for `C[N](C)[Ge]([N](C)C)([N](C)C)[N](C)C` [TETRAKIS(DIMETHYLAMINO)GERMANE] was 34.00 °C; that for `C[O][Ge]([O]C)([O]C)[O]C` [TETRAMETHOXYGERMANE] was 34.00 °C.
In series [2], `[CH3][Ge]([CH3])([CH3])[Br]` [TRIMETHYLBROMOGERMANE] came in with a flash point of 37.00 °C.
The compound `C=C[Si]1(C)[Si](C)(C=C)[Si](C)(C=C)[Si]1(C)C=C` (stereo unspecified) [Tetramethyltetravinylcyclotetrasilane] returned a flash point of 112 °C.
Turning to `C=[CH][Ge]([CH2]C)([CH2]C)[CH2]C` [VINYLTRIETHYLGERMANE], the flash point in series [2] is 32.00 °C.
As to `C[C](C)(C)[Ge]([CH3])([CH3])[Cl]` [t-BUTYLDIMETHYLCHLOROGERMANE], the flash point in series [2] is 34.00 °C.
